Data reported in ChEMBL document CHEMBL3045393, “Aryldiones incorporating a [1,4,5]oxadiazepane ring. Part I: Discovery of the novel cereal herbicide pinoxaden” (Bioorg Med Chem, 2009).

What was measured:
Setaria faberi [1] = assay: Post-emergence herbicidal activity against Setaria faberi (Giant Foxtail) at 500 g a.i./ha measured after 15 days; assay type: functional
Avena fatua [2] = assay: Post-emergence herbicidal activity against Avena fatua at 500 g a.i./ha measured after 15 days; assay type: functional
Hordeum vulgare = assay: Phytotoxicity against Hordeum vulgare (barley) at 500 g a.i./ha applied post-emergence measured after 15 days; assay type: organism-based; details: in vivo, other, 360 h
Alopecurus myosuroides = assay: Post-emergence herbicidal activity against Alopecurus myosuroides at 500 g a.i./ha measured after 15 days; assay type: functional
Lolium perenne [3] = assay: Post-emergence herbicidal activity against Lolium perenne (perennial ryegrass) at 500 g a.i./ha measured after 15 days; assay type: functional
Triticum aestivum = assay: Phytotoxicity against Triticum aestivum (wheat) at 500 g a.i./ha applied post-emergence measured after 15 days; assay type: organism-based; details: in vivo, other, 360 h
Lolium perenne [4] = assay: Post-emergence herbicidal activity against Lolium perenne (perennial ryegrass) at 500 g a.i./ha after 21 days; assay type: functional
Setaria faberi [5] = assay: Post-emergence herbicidal activity against Setaria faberi (Giant Foxtail) at 500 g a.i./ha after 21 days; assay type: functional
Lolium perenne [6] = assay: Post-emergence herbicidal activity against Lolium perenne (perennial ryegrass) at 2000 g a.i./ha after 21 days; assay type: functional
Avena fatua [7] = assay: Post-emergence herbicidal activity against Avena fatua at 2000 g a.i./ha after 21 days; assay type: functional
Avena fatua [8] = assay: Post-emergence herbicidal activity against Avena fatua at 500 g a.i./ha after 21 days; assay type: functional
Setaria faberi [9] = assay: Post-emergence herbicidal activity against Setaria faberi (Giant Foxtail) at 2000 g a.i./ha after 21 days; assay type: functional

In the case of Cc1cc(C)c(C2C(=O)N3C[C@H]4CCCC[C@@H]4CN3C2=O)c(C)c1, the Activity (Setaria faberi [1]) is reported as 80%, the Activity (Avena fatua [2]) is reported as 50% and the Activity (Hordeum vulgare) is reported as 50%. For the same compound, the Activity (Alopecurus myosuroides) was 60%, the Activity (Lolium perenne [3]) was 60% and the Activity (Triticum aestivum) was 50%.

Cc1cc(C)c(C2C(=O)N3CC(C)C(C)CN3C2=O)c(C)c1 (configuration not stated) was tested, and the Activity (Setaria faberi [1]) was 60%, the Activity (Avena fatua [2]) was 80% and the Activity (Hordeum vulgare) was 60%. For the same compound, the Activity (Alopecurus myosuroides) was 80%, the Activity (Lolium perenne [3]) was 80% and the Activity (Triticum aestivum) was 20%.

Cc1cc(C)c(C2C(=O)N3CCN(C)CCN3C2=O)c(C)c1 gave an Activity (Lolium perenne [4]) of 10%, an Activity (Setaria faberi [5]) of 40% and an Activity (Lolium perenne [6]) of 60%. It also gave an Activity (Avena fatua [7]) of 10%, an Activity (Avena fatua [8]) of 0% and an Activity (Setaria faberi [9]) of 90%.

Cc1cc(C)c(C2C(=O)N3CCSCCN3C2=O)c(C)c1 was tested, and the Activity (Lolium perenne [4]) was 50%, the Activity (Setaria faberi [5]) was 90% and the Activity (Lolium perenne [6]) was 90%. For the same compound, the Activity (Avena fatua [7]) was 90%, the Activity (Avena fatua [8]) was 60% and the Activity (Setaria faberi [9]) was 100%.

Cc1cc(C)c(-c2c(OC(=O)C(C)(C)C)n3n(c2=O)CC[S+]([O-])CC3)c(C)c1 (configuration not stated) showed an Activity (Lolium perenne [4]) of 20%, an Activity (Setaria faberi [5]) of 40% and an Activity (Lolium perenne [6]) of 50%. The Activity (Avena fatua [7]) was 80%, the Activity (Avena fatua [8]) was 20% and the Activity (Setaria faberi [9]) was 80%.

For Cc1cc(C)c(C2C(=O)N(C)N(C)C2=O)c(C)c1, the Activity (Setaria faberi [1]) was 80%, the Activity (Avena fatua [2]) was 40% and the Activity (Hordeum vulgare) was 20%. It also gave an Activity (Alopecurus myosuroides) of 40%, an Activity (Lolium perenne [3]) of 50% and an Activity (Triticum aestivum) of 10%.

Cc1cc(C)c(-c2c(OC(=O)C(C)(C)C)n3n(c2=O)CCCCC3)c(C)c1 was tested, and the Activity (Lolium perenne [4]) was 80%, the Activity (Setaria faberi [5]) was 90% and the Activity (Lolium perenne [6]) was 100%. The Activity (Avena fatua [7]) was 90%, the Activity (Avena fatua [8]) was 60% and the Activity (Setaria faberi [9]) was 90%.

Work on Cc1cc(C)c(-c2c(OC(=O)C(C)(C)C)n3n(c2=O)CCSCC3)c(C)c1 yielded an Activity (Lolium perenne [4]) of 40%, an Activity (Setaria faberi [5]) of 60% and an Activity (Lolium perenne [6]) of 80%. It also gave an Activity (Avena fatua [7]) of 90%, an Activity (Avena fatua [8]) of 50% and an Activity (Setaria faberi [9]) of 100%.

For Cc1cc(C)c(C2C(=O)N3CCCN3C2=O)c(C)c1, the Activity (Setaria faberi [1]) was 40%, the Activity (Avena fatua [2]) was 20% and the Activity (Hordeum vulgare) was 40%. The Activity (Alopecurus myosuroides) was 40%, the Activity (Lolium perenne [3]) was 80% and the Activity (Triticum aestivum) was 0%.

Cc1cc(C)c(C2C(=O)N3CCC(C)CN3C2=O)c(C)c1 (configuration not stated) showed an Activity (Setaria faberi [1]) of 50%, an Activity (Avena fatua [2]) of 90% and an Activity (Hordeum vulgare) of 90%. The Activity (Alopecurus myosuroides) was 90%, the Activity (Lolium perenne [3]) was 90% and the Activity (Triticum aestivum) was 50%.

For Cc1cc(C)c(C2C(=O)N3C[C@H]4CCCC[C@H]4CN3C2=O)c(C)c1 (some centres not stated), the Activity (Setaria faberi [1]) was 60%, the Activity (Avena fatua [2]) was 80% and the Activity (Hordeum vulgare) was 60%. It also gave an Activity (Alopecurus myosuroides) of 60%, an Activity (Lolium perenne [3]) of 90% and an Activity (Triticum aestivum) of 50%.

For Cc1cc(C)c(C2C(=O)N3CCC(C)CCN3C2=O)c(C)c1, the Activity (Setaria faberi [1]) was 60%, the Activity (Avena fatua [2]) was 90% and the Activity (Hordeum vulgare) was 60%. For the same compound, the Activity (Alopecurus myosuroides) was 90%, the Activity (Lolium perenne [3]) was 80% and the Activity (Triticum aestivum) was 20%.

In the case of Cc1cc(C)c(C2C(=O)N3CC(C)(C)CN3C2=O)c(C)c1, the Activity (Setaria faberi [1]) is reported as 90%, the Activity (Avena fatua [2]) is reported as 90% and the Activity (Hordeum vulgare) is reported as 90%. It also gave an Activity (Alopecurus myosuroides) of 100%, an Activity (Lolium perenne [3]) of 90% and an Activity (Triticum aestivum) of 60%.

Compound COC1CN2C(=O)C(c3c(C)cc(C)cc3C)C(=O)N2C1 has an Activity (Setaria faberi [1]) of 60%, an Activity (Avena fatua [2]) of 20% and an Activity (Hordeum vulgare) of 0%. The Activity (Alopecurus myosuroides) was 20%, the Activity (Lolium perenne [3]) was 20% and the Activity (Triticum aestivum) was 0%.

Compound Cc1cc(C)c(C2C(=O)N3CCCC(C)N3C2=O)c(C)c1 (configuration not stated) has an Activity (Setaria faberi [1]) of 40%, an Activity (Avena fatua [2]) of 90% and an Activity (Hordeum vulgare) of 80%. For the same compound, the Activity (Alopecurus myosuroides) was 40%, the Activity (Lolium perenne [3]) was 90% and the Activity (Triticum aestivum) was 20%.

With Cc1cc(C)c(C2C(=O)N3CCS(=O)(=O)CCN3C2=O)c(C)c1 the Activity (Lolium perenne [4]) was 20%, the Activity (Setaria faberi [5]) was 20% and the Activity (Lolium perenne [6]) was 60%. It also gave an Activity (Avena fatua [7]) of 80%, an Activity (Avena fatua [8]) of 60% and an Activity (Setaria faberi [9]) of 60%.

With Cc1cc(C)c(C2C(=O)N3CC(C)CN3C2=O)c(C)c1 the Activity (Setaria faberi [1]) was 50%, the Activity (Avena fatua [2]) was 90% and the Activity (Hordeum vulgare) was 50%. The Activity (Alopecurus myosuroides) was 50%, the Activity (Lolium perenne [3]) was 60% and the Activity (Triticum aestivum) was 40%.
